Among the data in patent publication US7138411B2, “Substituted benzopyran derivatives for the treatment of inflammation” (G.D. Searle & Co., priority 1997, dated 2006) are IC50 and melting point values, retold here.

For data set [1], the target named is T1, COX-2 (UniProt P35354).
T1 sequence (P35354 1-604): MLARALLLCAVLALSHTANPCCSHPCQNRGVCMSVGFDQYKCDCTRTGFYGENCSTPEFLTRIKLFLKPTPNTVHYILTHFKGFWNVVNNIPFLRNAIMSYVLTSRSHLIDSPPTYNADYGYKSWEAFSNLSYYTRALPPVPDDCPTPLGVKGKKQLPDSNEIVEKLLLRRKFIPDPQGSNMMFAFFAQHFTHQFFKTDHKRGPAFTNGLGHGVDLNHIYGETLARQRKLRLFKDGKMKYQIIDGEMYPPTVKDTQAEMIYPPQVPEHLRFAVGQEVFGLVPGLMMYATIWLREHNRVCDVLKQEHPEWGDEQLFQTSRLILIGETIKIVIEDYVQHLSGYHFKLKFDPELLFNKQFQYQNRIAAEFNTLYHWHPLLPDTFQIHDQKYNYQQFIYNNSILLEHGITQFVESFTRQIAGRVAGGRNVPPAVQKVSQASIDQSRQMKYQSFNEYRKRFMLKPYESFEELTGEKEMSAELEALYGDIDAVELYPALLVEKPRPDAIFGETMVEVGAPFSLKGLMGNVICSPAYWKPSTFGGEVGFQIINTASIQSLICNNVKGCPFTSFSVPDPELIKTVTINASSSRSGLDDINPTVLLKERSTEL
Put plainly: Fast assay for COX-2 activity (PGE2 ELISA). Type of data set: biochemical, human or murine. To be noted: fast assay: 10 min pre-incubation at 25° C., reaction stopped after two minutes, pH 7.5.

The target in data set [2] is T1, COX-2. Put plainly: Assay for COX-2 activity (PGE2 ELISA). To be noted: read-out: COX-2 IC50; 10–20 minutes pre-incubation, reaction stopped after ten minutes, pH 8.0.
Method: Recombinant baculoviruses were isolated by transfecting 4 μg of baculovirus transfer vector DNA into SF9 insect cells (2×10^8) along with 200 ng of linearized baculovirus plasmid DNA by the calcium phosphate method. […] Recombinant viruses were purified by three rounds of plaque purification and high titer (10^7–10^8 pfu/mL) stocks of virus were prepared. For large scale production, SF9 insect cells were infected in 10 liter fermentors (0.5×10^6/mL) with the recombinant baculovirus stock such that the multiplicity of infection was 0.1. […] The homogenate was centrifuged at 10,000×G for 30 minutes, and the resultant supernatant was stored at −80° C. before being assayed for COX activity.
Assay for COX-1 and COX-2 Activity
COX activity was assayed as PGE2 formed/μg protein/time using an ELISA to detect the prostaglandin released. CHAPS-solubilized insect cell membranes containing the appropriate COX enzyme were incubated in a potassium phosphate buffer (50 mM, pH 8.0) containing epinephrine, phenol, and heme with the addition of arachidonic acid (10 μM). […] The PGE2 formed was measured by standard ELISA technology (Cayman Chemical).
For data set [3], the target named is COX-1 (UniProt P23219). Put plainly: Assay for COX-1 activity (PGE2 ELISA). To be noted: read-out: COX-1 IC50; 10–20 minutes pre-incubation, reaction stopped after ten minutes, pH 8.0.

Bounds are passed on as bounds.

With `CSc1ccc2c(c1)C=C(C(=O)O)C(C(F)(F)F)O2` (centres unmarked) [Example 2, 6-(Methylthio)-2-(trifluoromethyl)-2H-1-benzopyran-3-carboxylic acid], the IC50 was under 0.1 µM in data set [1], under 0.1 µM in data set [2] and 5 µM in data set [3].
In turn, `COc1ccc(Oc2ccc3c(c2)C=C(C(=O)O)C(C(F)(F)F)O3)cc1` (centres unmarked) [Example 7, 6-(4-Methoxyphenoxy)-2-(trifluoromethyl)-2H-1-benzopyran-3-carboxylic acid] gave a melting point of 181.7 to 182.9 °C. Besides, in data set [2], the half-maximal inhibitory concentration (IC50) was under 0.1 µM. In addition, in data set [3], the IC50 was found to be 1 µM.
Molecule `COc1ccc(Oc2ccc3c(c2)C=C(C(=O)O)C(C(F)(F)F)O3)cc1Cl` (centres unmarked) [Example 9, 6-(3-Chloro-4-methoxyphenoxy)-2-(trifluoromethyl)-2H-1-benzopyran-3-carboxylic acid] returned a melting point of 205 to 207 °C. The same molecule had a 50% inhibitory concentration (IC50) in data set [1] of under 0.1 µM. Besides, the IC50 in data set [2] was under 0.1 µM. The concentration for half-maximal inhibition (IC50) in data set [3] was under 0.1 µM.
`O=C(O)C1=Cc2cc(Cl)cc(Br)c2OC1C(F)(F)F` (centres unmarked) [Example 15, 8-Bromo-6-chloro-2-trifluoromethyl-2H-1-benzopyran-3-carboxylic acid] yielded a melting point of 227.8 to 228.9 °C. This molecule also showed an IC50 in data set [1] of over 0.1 µM. In addition, the IC50 in data set [2] stood at 134 µM. Further, the IC50 in data set [3] is 44 µM.
With `CC(C)(C)c1cc2c(c(C(C)(C)C)c1)OC(C(F)(F)F)C(C(=O)O)=C2` (centres unmarked) [Example 23, 6,8-bis(1,1-Dimethylethyl)-2-trifluoromethyl-2H-1-benzopyran-3-carboxylic acid], the melting point lay in the range of 171.6 to 175 °C. The molecule also returned a 50% inhibitory concentration (IC50) in data set [1] of 7 µM. Further, the half-maximal inhibitory concentration (IC50) in data set [2] was determined as 24 µM. The half-maximal inhibitory concentration (IC50) in data set [3] was over 100 µM.
The molecule `O=C(O)C1=Cc2cc(Cl)c(-c3ccccc3)cc2OC1C(F)(F)F` (centres unmarked) [Example 30, 6-Chloro-7-phenyl-2-trifluoromethyl-2H-1-benzopyran-3-carboxylic acid] had a melting point of 185.3 to 187.8 °C. This molecule gave an IC50 in data set [1] of under 0.1 µM. Further, the half-inhibitory concentration (IC50) in data set [2] worked out at 16 µM. Moreover, the half-maximal inhibitory concentration (IC50) in data set [3] was found to be 3.8 µM.
`O=C(O)C1=Cc2cc(Br)cc(Br)c2OC1C(F)(F)F` (centres unmarked) [Example 33, 6,8-Dibromo-2-trifluoromethyl-2H-1-benzopyran-3-carboxylic acid] registered a melting point of 225 to 226 °C. Further, the IC50 in data set [1] is under 0.1 µM. Besides, in data set [2], the half-inhibitory concentration (IC50) was found to be 8.2 µM. The 50% inhibitory concentration (IC50) in data set [3] stood at 28 µM.
The matching figures for `CCOC(=O)C1=Cc2cc(N)ccc2OC1C(F)(F)F` (centres unmarked) [Example 35, Ethyl 6-amino-2-trifluoromethyl-2H-1-benzopyran-3-carboxylate]: 111 to 115 °C, 2.2 µM, 1.7 µM and 11 µM.
`O=C(O)C1=Cc2cc(Br)cc(Cl)c2OC1C(F)(F)F` (centres unmarked) [Example 42, 6-Bromo-8-chloro-2-trifluoromethyl-2H-1-benzopyran-3-carboxylic acid] displayed a melting point of 220.7 to 221.7 °C. In data set [1], this molecule gave a concentration for half-maximal inhibition (IC50) of under 0.1 µM. Besides, in data set [2], the IC50 was under 0.1 µM. Further, in data set [3], the concentration for half-maximal inhibition (IC50) was determined as 11 µM.
As to `Cc1cc(Br)c2c(c1)C=C(C(=O)O)C(C(F)(F)F)O2` (centres unmarked) [Example 44, 8-Bromo-6-methyl-2-trifluoromethyl-2H-1-benzopyran-3-carboxylic acid], the melting point fell in the range of 237 to 238 °C. Moreover, inhibition in data set [1] was half-maximal at 0.3 µM (IC50). Further, in data set [2], the half-maximal inhibitory concentration (IC50) came out at 21 µM. Moreover, the IC50 in data set [3] is over 100 µM.
Taken in the same sequence, the figures for `O=C(O)C1=Cc2c(F)ccc(Br)c2OC1C(F)(F)F` (centres unmarked) [Example 45, 8-Bromo-5-fluoro-2-trifluoromethyl-2H-1-benzopyran-3-carboxylic acid] were 221.7 to 223.3 °C, 0.2 µM, 46 µM and over 100 µM.
`COc1cc(Br)cc2c1OC(C(F)(F)F)C(C(=O)O)=C2` (centres unmarked) [Example 47, 6-Bromo-8-methoxy-2-trifluoromethyl-2H-1-benzopyran-3-carboxylic acid]: the IC50 in data set [1] is 1.9 µM; in data set [2] it was 1.7 µM; in data set [3], over 100 µM.
Molecule `O=C(O)C1=Cc2cc(S(=O)(=O)NCc3ccccc3)ccc2OC1C(F)(F)F` (centres unmarked) [Example 49, 6-[[(Phenylmethyl)amino]sulfonyl]-2-trifluoromethyl-2H-1-benzopyran-3-carboxylic acid] displayed a melting point of 223.3 to 224.4 °C. Moreover, the half-maximal inhibitory concentration (IC50) in data set [1] came out at 24 µM. Moreover, the half-maximal inhibitory concentration (IC50) in data set [2] came to 31 µM. The 50% inhibitory concentration (IC50) in data set [3] was over 100 µM.
In the case of `O=C(O)C1=Cc2cc(S(=O)(=O)N3CCOCC3)ccc2OC1C(F)(F)F` (centres unmarked) [Example 53, 6-[(4-Morpholino)sulfonyl]-2-trifluoromethyl-2H-1-benzopyran-3-carboxylic acid], the melting point fell in the range of 215.2 to 219.3 °C. Moreover, it took 8 µM to reach half-maximal inhibition in data set [1] (IC50). Also, in data set [2], the IC50 was 6 µM. For the same molecule, in data set [3], the concentration for half-maximal inhibition (IC50) is over 100 µM.
Taken in the same sequence, the figures for `CC(C)CNS(=O)(=O)c1ccc2c(c1)C=C(C(=O)O)C(C(F)(F)F)O2` (centres unmarked) [Example 55, 6-[(2-Methylpropyl)aminosulfonyl]-2-trifluoromethyl-2H-1-benzopyran-3-carboxylic acid] were 190.6 to 192.4 °C, 46 µM, 53 µM and over 100 µM.
`CS(=O)(=O)c1ccc2c(c1)C=C(C(=O)O)C(C(F)(F)F)O2` (centres unmarked) [Example 56, 6-Methylsulfonyl-2-trifluoromethyl-2H-1-benzopyran-3-carboxylic acid]: the melting point is 208.3 to 212.4 °C. The molecule also yielded an IC50 in data set [1] of 12 µM. Also, in data set [2], the IC50 worked out at 29 µM. The 50% inhibitory concentration (IC50) in data set [3] was over 100 µM.
In the case of `O=C(O)C1=Cc2cc(S(=O)(=O)NCc3ccccc3)cc(Cl)c2OC1C(F)(F)F` (centres unmarked) [Example 57, 8-Chloro-6-[[(phonylmethyl)amino]sulfonyl]-2-trifluoromethyl-2H-1-benzopyran-3-carboxylic acid], the half-inhibitory concentration (IC50) in data set [1] was 21 µM; in data set [2], 21 µM; in data set [3], over 100 µM.
`O=C(O)C1=Cc2cc(Cl)ccc2O[C@@H]1C(F)(F)F` [Example 66, (S)-6-Chloro-2-trifluoromethyl-2H-1-benzopyran-3-carboxylic acid]: the half-inhibitory concentration (IC50) was 82 µM in data set [1], under 0.1 µM in data set [2] and 16.9 µM in data set [3].
`O=C(O)C1=Cc2cc(C(F)(F)C(F)(F)F)ccc2OC1C(F)(F)F` (centres unmarked) [Example 88, 6-(Pentafluoroethyl)-2-(trifluoromethyl)-2H-1-benzopyran-3-carboxylic acid] had a melting point of 162.3 to 164.7 °C. In addition, the half-inhibitory concentration (IC50) in data set [1] was under 0.1 µM. The IC50 in data set [2] was under 0.1 µM. Besides, in data set [3], the IC50 was 6.4 µM.
With `O=C(O)C1=Cc2cc(SC(F)(F)F)ccc2OC1C(F)(F)F` (centres unmarked) [Example 91, 2-(Trifluoromethyl)-6-[(trifluoromethyl)thio]-2H-1-benzopyran-3-carboxylic acid], the IC50 in data set [1] is under 0.1 µM; in data set [2], 0.2 µM; in data set [3] it was 36 µM.
As to `O=C(O)C1=Cc2cc(C(=O)c3ccc(Cl)cc3)ccc2OC1C(F)(F)F` (centres unmarked) [Example 97, 6-(4-Chlorobenzoyl)-2-(trifluoromethyl)-2H-1-benzopyran-3-carboxylic acid], the melting point lay within 268.3 to 269.4 °C. For the same molecule, the IC50 in data set [1] came out at 0.2 µM. For the same molecule, the half-inhibitory concentration (IC50) in data set [2] turned out to be 0.1 µM. For the same molecule, the half-maximal inhibitory concentration (IC50) in data set [3] is 25 µM.
The matching figures for `O=C(O)C1=Cc2cc(C(=O)c3ccc(O)cc3)ccc2OC1C(F)(F)F` (centres unmarked) [Example 98, 6-(4-Hydroxybenzoyl)-2-(trifluoromethyl)-2H-1-benzopyran-3-carboxylic acid]: 234 to 239.5 °C, 2 µM, 1.5 µM and 19 µM.
The matching figures for `O=C(O)C1=Cc2cc(Oc3ccccc3)ccc2OC1C(F)(F)F` (centres unmarked) [Example 99, 6-Phenoxy-2-(trifluoromethyl)-2H-1-benzopyran-3-carboxylic acid]: 184.9 to 186.4 °C, 0.2 µM, under 0.1 µM and 23 µM.
Take `Cc1cc2c(cc1Cl)C=C(C(=O)O)C(C(F)(F)F)S2` (centres unmarked) [Example 152, 6-Chloro-7-methyl-2-(trifluoromethyl)-2H-1-benzothiopyran-3-carboxylic acid]: the values for the IC50 in data set [1], in data set [2] and in data set [3] were under 0.1 µM, under 0.1 µM and 10 µM, respectively.
Consider `O=C(O)C1=Cc2cc(Cl)c(Oc3ccccn3)cc2OC1C(F)(F)F` (centres unmarked) [Example 202, 6-Chloro-7-[2-pyridinyloxy]-2-(trifluoromethyl)-2H-1-benzopyran-3-carboxylic acid], for which the melting point was 234.2 to 235.4 °C. Moreover, the IC50 in data set [2] is under 0.1 µM. For the same molecule, the half-maximal inhibitory concentration (IC50) in data set [3] is 42.8 µM.
